Results reported in US20240099214A1, “PLANT DEFENCE GENE EXPRESSION” (UPL Corporation Limited, priority 2021, published 2024).

What was measured:
[1] = test system: E3 Ubiquitin-protein ligase march3 (gene 2, Solyc01g079530.2); experiment: qRT-PCR expression of gene 2 in tomato leaves; format: in vivo, Tomato ecotype corbarino; design: key: relative expression normalized to a-tubulin housekeeping gene
Method: (§1) Tomato ecotype “corbarino” reported to be susceptible to TSWV infection was used in the experiment. Plants were grown in pots in a climatic chamber with a photoperiod of 16/8 hour at 25° C.
(§2) The viral strain (TSWV PV PV-0393) was utilized in the experiment. The virus was mechanically inoculated and propagated on tomato “corbarino”. The inoculum was prepared in an ice-cooled mortar grounding 1 gr of infected tomato tissue in 10 ml of Na-phosphate buffer 0.01M. The fresh prepared inoculum was stored in ice before use. Tomato plants at BBCH16 were dusted with Carborundum 600 mesh and selected leaves were rubbed with some droplets of inoculum. After 5 min. plants were sprayed with sterile water to remove the excess of inoculum and preserve the cell turgor.
(§3) Four treatments were compared: i) Mock inoculated; ii) TSWV; iii) 0.25% Laminarin; iv) 0.25% Laminarin+TSWV. In the last treatment the virus was inoculated 24 hrs after the laminarin application.
(§4) Total RNA was extracted from systemic infected tomato leaves by using the Quick-RNA Plant Kit (Zymo Research) following the manufacturer instructions. The extractions were carried out using three plants after 12 h, 24 h, 48 h, 72 h, 7 days after inoculation. Leaves were instantly frozen in liquid nitrogen after cutting to avoid any deterioration of the sample as well as any defense reaction. The RNA concentration was quantified by measuring the absorbance at 260 nm using a Nanodrop 2000 (Thermofisher). The purity of all of the RNA samples was assessed at an absorbance ratio of OD260/280 and OD260/230, while its structural integrity was checked by agarose gel electrophoresis. Only high-quality RNA with OD 260/280 and OD 260/230>2 was used for subsequent steps. Single-stranded cDNA was synthesized from 1 μg of total RNA using an iScript™ Select cDNA Synthesis Kit and random hexamers as primers (Bio-Rad, Milan, Italy), according to the manufacturer's instructions. Three biological replicates were created from the 3 leaves collected to test 15 genes. Alpha tubulin was used as reference gene.
(§5) qPCR reactions were performed with BioRad (Applied Biosystems, Foster City, CA, USA) using SYBR R Green. Each reaction was performed in 20 μl containing 10 μl of 2× Power SYBR Green PCR Master Mix (Life Technologies), 0.2-0.3 μM primers and cDNA samples diluted 1:20. Each qPCR reaction was performed in triplicate. Reactions were run using the cycling parameter described previously (Reid et al., 2006) and the qPCR data were analyzed by the Ct method (Pfaffl, 2001). In order to analyze the qPCR data, a-tubulin gene was used as housekeeping to determine the relative expression level of the other genes analyzed in this work. For the determination of qPCR efficiency of each primer pairs, a standard curve was performed using the following cDNA dilutions: 1:4, 1:16, 1:64; 1:256 and 1:1024. Every measurement was made in triplicate. The corresponding qPCR efficiencies (E) were calculated for every primer pair with the software 7300 System SDS software (Applied Biosystems, Foster City, CA, USA) according to the equation E=(10−1/slope−1)×100 (Rutledge and Stewart, 2008).
(§6) The significance of the differences between the gene expressions levels were compared by one-way ANOVA (p=0.01) and the means were separated by Tukey post-hoc test using SPSS ver.26 ([…]).

[2] = test system: Pathogenesis-related protein P4 (gene 11, M69247.1); experiment: qRT-PCR expression of gene 11 in tomato leaves; format: in vivo, Tomato ecotype corbarino; design: key: relative expression normalized to a-tubulin housekeeping gene
Method: as §1, §2, §3, §4, §5, §6

laminarin
RQ1 ([1]; 12 hr, Laminarin + virus): 13.056 | RQ2 ([1]; 12 hr, Laminarin + virus): 23.403 | RQ3 ([1]; 12 hr, Laminarin + virus): 12.079 | RQ mean ([1]; 12 hr, Laminarin + virus): 16.179 | RQ1 ([1]; 12 hr, Laminarin alone): 13.140 | RQ2 ([1]; 12 hr, Laminarin alone): 19.586 | RQ3 ([1]; 12 hr, Laminarin alone): 10.706 | RQ mean ([1]; 12 hr, Laminarin alone): 14.477 | RQ1 ([1]; 24 hr, Laminarin + virus): 11.700 | RQ2 ([1]; 24 hr, Laminarin + virus): 13.596 | RQ3 ([1]; 24 hr, Laminarin + virus): 12.341 | RQ mean ([1]; 24 hr, Laminarin + virus): 12.546 | RQ1 ([1]; 24 hr, Laminarin alone): 13.152 | RQ2 ([1]; 24 hr, Laminarin alone): 13.329 | RQ3 ([1]; 24 hr, Laminarin alone): 14.033 | RQ mean ([1]; 24 hr, Laminarin alone): 13.505 | RQ1 ([1]; 48 hr, Laminarin + virus): 24.083 | RQ2 ([1]; 48 hr, Laminarin + virus): 18.519 | RQ3 ([1]; 48 hr, Laminarin + virus): 21.352 | RQ mean ([1]; 48 hr, Laminarin + virus): 21.318 | RQ1 ([1]; 48 hr, Laminarin alone): 27.467 | RQ2 ([1]; 48 hr, Laminarin alone): 17.321 | RQ3 ([1]; 48 hr, Laminarin alone): 23.298 | RQ mean ([1]; 48 hr, Laminarin alone): 22.695 | RQ1 ([1]; 72 hr, Laminarin + virus): 28.726 | RQ2 ([1]; 72 hr, Laminarin + virus): 29.558 | RQ3 ([1]; 72 hr, Laminarin + virus): 37.336 | RQ mean ([1]; 72 hr, Laminarin + virus): 31.873 | RQ1 ([1]; 72 hr, Laminarin alone): 29.447 | RQ2 ([1]; 72 hr, Laminarin alone): 23.000 | RQ3 ([1]; 72 hr, Laminarin alone): 53.007 | RQ mean ([1]; 72 hr, Laminarin alone): 35.151 | RQ1 ([2]; 12 hr, Laminarin + virus): 12.101 | RQ2 ([2]; 12 hr, Laminarin + virus): 11.431 | RQ3 ([2]; 12 hr, Laminarin + virus): 10.206 | RQ mean ([2]; 12 hr, Laminarin + virus): 11.246 | RQ1 ([2]; 12 hr, Laminarin alone): 0.9441 | RQ2 ([2]; 12 hr, Laminarin alone): 0.8925 | RQ3 ([2]; 12 hr, Laminarin alone): 11.302 | RQ mean ([2]; 12 hr, Laminarin alone): 0.9889 | RQ1 ([2]; 24 hr, Laminarin + virus): 13.862 | RQ2 ([2]; 24 hr, Laminarin + virus): 11.424 | RQ3 ([2]; 24 hr, Laminarin + virus): 11.236 | RQ mean ([2]; 24 hr, Laminarin + virus): 12.174 | RQ1 ([2]; 24 hr, Laminarin alone): 17.183 | RQ2 ([2]; 24 hr, Laminarin alone): 12.595 | RQ3 ([2]; 24 hr, Laminarin alone): 13.075 | RQ mean ([2]; 24 hr, Laminarin alone): 14.284 | RQ1 ([2]; 48 hr, Laminarin + virus): 28.058 | RQ2 ([2]; 48 hr, Laminarin + virus): 20.254 | RQ3 ([2]; 48 hr, Laminarin + virus): 34.812 | RQ mean ([2]; 48 hr, Laminarin + virus): 27.708 | RQ1 ([2]; 48 hr, Laminarin alone): 34.926 | RQ2 ([2]; 48 hr, Laminarin alone): 33.905 | RQ3 ([2]; 48 hr, Laminarin alone): 24.218 | RQ mean ([2]; 48 hr, Laminarin alone): 31.016 | RQ1 ([2]; 72 hr, Laminarin + virus): 80.672 | RQ2 ([2]; 72 hr, Laminarin + virus): 76.025 | RQ3 ([2]; 72 hr, Laminarin + virus): 53.346 | RQ mean ([2]; 72 hr, Laminarin + virus): 70.014 | RQ1 ([2]; 72 hr, Laminarin alone): 47.958 | RQ2 ([2]; 72 hr, Laminarin alone): 51.518 | RQ3 ([2]; 72 hr, Laminarin alone): 48.365 | RQ mean ([2]; 72 hr, Laminarin alone): 49.280
